This passage reports inhibition results from patent US20250122182A1 (Isosterix, Inc., priority 2023, published 2025).

The target of this assay is Recombinant KAT6A/MOZ (488-778) protein (Homo sapiens (Human), UniProt Q92794). The experiment in a line: KAT6A AlphaLISA Inhibition Screening Assay. In kind it is biochemical. Conditions: for inhibition at 1 µM: read-out: Average Kat6A % inhibition @ 1 μM, 1 μM test compound; for inhibition at 10 µM: read-out: Average Kat6A % inhibition @ 10 μM, 10 μM test compound. In short, it runs like this:
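AlphaLISA read-out with anti-acetyl-lysine acceptor and streptavidin donor beads, % inhibition relative to vehicle. Reaction: biotinylated histone H3 1-21 (200 nM) and acetyl-CoA (400 nM) with KAT6A 488-778 (25 nM), 120 min at room temperature, pH 8.0, 330 nM TSA, after 60 or 10 min enzyme–compound pre-incubation; 10-point 3-fold series from 10 μM.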

Recombinant KAT6A/MOZ (488-778) protein, sequence (Q92794 488-778): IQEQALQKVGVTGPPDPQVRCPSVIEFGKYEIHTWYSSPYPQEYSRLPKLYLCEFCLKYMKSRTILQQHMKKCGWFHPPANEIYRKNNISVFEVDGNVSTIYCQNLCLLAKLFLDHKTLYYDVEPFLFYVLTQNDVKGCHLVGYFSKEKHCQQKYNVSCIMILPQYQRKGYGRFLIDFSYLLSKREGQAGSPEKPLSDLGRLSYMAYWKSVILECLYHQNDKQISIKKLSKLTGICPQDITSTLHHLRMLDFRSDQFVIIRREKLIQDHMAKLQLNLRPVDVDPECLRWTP

Consider `C=C(F)C(=O)NCc1cnn(Cc2cc(OC)c3c(NS(=O)(=O)c4cc(CC)ccc4OCCC#N)noc3c2)c1` [Syn. Ex. 84, N-((1-((3-((2-(2-cyanoethoxy)-5-ethylphenyl)sulfonamido)-4-methoxybenzo[d]isoxazol-6-yl)methyl)-1H-pyrazol-4-yl)methyl)-2-fluoroacrylamide], for which the inhibition at 1 µM is 100% and the inhibition at 10 µM stood at 100%.

`COc1ccc(S(=O)(=O)Nc2noc3cc(Cn4cc(CNS(C)(=O)=O)cn4)cc(OC)c23)c(OC)c1` [Syn. Ex. 10, 2,4-dimethoxy-N-(4-methoxy-6-((4-(methylsulfonamidomethyl)-1H-pyrazol-1-yl)methyl)benzo[d]isoxazol-3-yl)benzenesulfonamide]: the inhibition at 1 µM is 100% and the inhibition at 10 µM came out at 100%.

Regarding `C=C(F)C(=O)NCc1cnn(Cc2cc(OC)c3c(NS(=O)(=O)c4cc(CC)ccc4OCCN4CCOC4=O)noc3c2)c1` [Syn. Ex. 78, N-((1-((3-((5-ethyl-2-(2-(2-oxooxazolidin-3-yl)ethoxy)phenyl)sulfonamido)-4-methoxybenzo[d]isoxazol-6-yl)methyl)-1H-pyrazol-4-yl)methyl)-2-fluoroacrylamide], the inhibition at 1 µM worked out at 100% and the inhibition at 10 µM is 100%.

Consider `C=C(F)C(=O)NCc1cnn(Cc2cc(OC)c3c(NS(=O)(=O)c4cc(CC)ccc4OCC(=O)O)noc3c2)c1` [Syn. Ex. 67, 2-(4-ethyl-2-(N-(6-((4-((2-fluoroacrylamido)methyl)-1H-pyrazol-1-yl)methyl)-4-methoxybenzo[d]isoxazol-3-yl)sulfamoyl)phenoxy)acetic acid], for which the inhibition at 1 µM stood at 100% and the inhibition at 10 µM came out at 100%.

Take `COC(=O)NCc1cnn(Cc2cc3onc(NS(=O)(=O)c4ccccc4OC)c3c3c2CCCO3)c1` [Syn. Ex. 133, methyl ((1-((9-((2-methoxyphenyl)sulfonamido)-3,4-dihydro-2H-chromeno[8,7-d]isoxazol-5-yl)methyl)-1H-pyrazol-4-yl)methyl)carbamate]: the inhibition at 1 µM was determined as 100% and the inhibition at 10 µM is 103%.

Take `CCc1ccc(OC)c(S(=O)(=O)Nc2noc3cc(Cn4cc(CNS(=O)(=O)CCOC)cn4)cc(OC)c23)c1` [Syn. Ex. 18, 5-ethyl-2-methoxy-N-(4-methoxy-6-((4-(((2-methoxyethyl)sulfonamido)methyl)-1H-pyrazol-1-yl)methyl)benzo[d]isoxazol-3-yl)benzenesulfonamide]: the inhibition at 1 µM stood at 97% and the inhibition at 10 µM is 98%.

Consider `CCc1ccc(OC)c(S(=O)(=O)Nc2noc3cc(Cn4cc(CNC(C)=O)cn4)cc(OC)c23)c1` [Syn. Ex. 8, N-((1-((3-((5-ethyl-2-methoxyphenyl)sulfonamido)-4-methoxybenzo[d]isoxazol-6-yl)methyl)-1H-pyrazol-4-yl)methyl) acetamide], for which the inhibition at 1 µM came to 99% and the inhibition at 10 µM was determined as 100%.

As for `COc1cc(C)c(C)cc1S(=O)(=O)Nc1noc2cc(Cn3cc(CNS(C)(=O)=O)cn3)cc(OC)c12` [Syn. Ex. 20, 2-methoxy-N-(4-methoxy-6-((4-(methylsulfonamidomethyl)-1H-pyrazol-1-yl)methyl)benzo[d]isoxazol-3-yl)-4,5-dimethylbenzenesulfonamide], the inhibition at 1 µM stood at 100% and the inhibition at 10 µM is 100%.

`C=C(F)C(=O)NCc1cnn(Cc2cc(OC)c3c(NS(=O)(=O)c4cc(CC)ccc4OCC(N)=O)noc3c2)c1` [Syn. Ex. 45, N-((1-((3-((2-(2-amino-2-oxoethoxy)-5-ethylphenyl)sulfonamido)-4-methoxybenzo[d]isoxazol-6-yl)methyl)-1H-pyrazol-4-yl)methyl)-2-fluoroacrylamide]: the inhibition at 1 µM amounted to 85% and the inhibition at 10 µM is 99%.
